Literature values in patent EP1432446B1, “METHODS FOR THE IDENTIFICATION OF POLYPEPTIDE ANTIGENS ASSOCIATED WITH DISORDERS INVOLVING ABERRANT CELL PROLIFERATION” (Genentech, Inc., priority 2001, dated 2003).

In the case of `COc1cc2cc(c1Cl)N(C)C(=O)C[C@H](OC(=O)[C@H](C)N(C)C(C)=O)[C@]1(C)O[C@H]1[C@H](C)[C@@H]1C[C@@](O)(NC(=O)O1)[C@H](OC)/C=C/C=C(\C)C2` [maytansine, Maytansine], the “adverse effects in clinical trials” value (clinical trials discontinued) is listed as “serious adverse effects on the central nervous system and gastrointestinal system” and the associated toxicity (in vivo) is listed as “peripheral neuropathy”.
